Measurements from patent US20060166941A1, “Treatment and/or prevention of non-viral epithelial damage” (Epistem Limited, priority 2003, published 2006).
Several values for one entry are separate records, joined by “and”; a condition that tells them apart may be missing. Identical values can stand only once. Counter-ions that a name gives are not always drawn.

Assays:
[1] = system: clonogenic stem cells of the digestive epithelium; experiment: In vivo protection of intestinal epithelium clonogenic stem cells, radiation damage, independent experiment 2; design: species or system mice; conditions: for corrected crypts/circumference / no. crypts/circumference: day 4; for Protection Factor: 13Gy, corrected crypts treated / vehicle
Text: In Vivo Protection of Intestinal Epithelium Clonogenic Stem Cells—Radiation Damage Independent Experiment 2.
The ability of foscarnet (phosphonoformic acid trisodium salt hexahydrate) to prevent radiological damage to clonogenic stem cells of the digestive epithelium was illustrated by the following experiment.
The model of radiological insult used was treatment with 13 Gy X-ray whole body radiation at a dose rate of 0.7 Gy/minute. Such radiation treatment provides a model of radiotherapy administered to patients undergoing treatment for cancer.
Three experimental groups, each of six mice, were established as set out below:
Group 1: Received intra-peritoneal injection, containing 50 mg foscarnet/kilogram bodyweight, in sterile water, one hour prior to radiation treatment. Received one further identical injection on each of the three days following radiation treatment.
Group 2: Received intra-peritoneal injection, containing 25 mg foscarnet/kilogram bodyweight, in sterile water, one hour prior to radiation treatment. Received one further identical injection on each of the three days following radiation treatment.
Group 3: Vehicle control. Received intra-peritoneal injection, of sterile water, one hour prior to radiation treatment. Received one further identical injection on each of the three days following radiation treatment.
On the fourth day after treatment the animals of each group were killed, and intestinal tissue harvested for histological analysis. Tissue sections were stained with haemotoxylin and eosin, and were analysed for the presence of regenerating intestinal crypts. Regenerating intestinal crypts are derived from one or more surviving clonogenic stem cells, whereas sterilised crypts (containing no surviving stem cells) disappear within two days of irradiation. The number of regenerating crypts per intestinal circumference was counted, and the mean crypt width measured. Scores for each animal were then corrected to account for the probability of preferentially scoring larger crypts according to the following equation: [formula]
For each treatment a Protection Factor was calculated using the following equation: corrected crypts/circumference treated corrected crypts/circumference untreated (vehicle)

digestive epithelia = experiment: Diarrhoea prevention assay, 14 Gy X-ray partial body radiation; type: in vivo, mice; conditions: for incidence of diarrhoea (perianal soilage): 5 mice
Text: Diarrhoea Prevention Assay The ability of foscarnet (phosphonoformic acid trisodium salt hexahydrate) to prevent diarrhoea following radiological injury to digestive epithelia was investigated. The model of radiological insult used was treatment with 14 Gy X-ray partial body radiation (head and thorax lead shielded) at a dose rate of 0.7 Gy/minute. Such radiation treatment provides a model of radiotherapy administered to patients undergoing treatment for cancer. Three experimental groups, each of five mice, were established as set out below: Group 1: Received intra-peritoneal injection, containing 50 mg foscarnet/kilogram bodyweight, in sterile water, one hour prior to radiation treatment. Received one further identical injection on each of the next five days following radiation treatment. Group 2: Received intra-peritoneal injection, containing 100 mg foscarnet/kilogram bodyweight, in sterile water, one hour prior to radiation treatment. Received one further identical injection on each of the next five days following radiation treatment. Group 3: Vehicle control. […] Received intra-peritoneal injection, of sterile water, one hour prior to radiation treatment. Received one further identical injection on each of the next five days following radiation treatment. The incidences of both diarrhoea (measured by assessing perianal soilage twice daily) and morbidity among experimental animals were measured over the course of the seven days following radiation treatment.

oral mucosa = experiment: In vivo protection of oral mucosa following radiation damage (20 Gy head only), ventral tongue cellularity; design: species or system mice; conditions: 50 mg/kg 1 hr prior to 20 Gy (head only) and once a day until sampling; versus vehicle
Text: In Vivo Protection of Oral Mucosa Following Radiation Damage. The ability of foscarnet (phosphonoformic acid trisodium salt hexahydrate) to prevent radiological damage to oral mucosa was illustrated by the following experiment. The model of cytotoxic insult used was treatment with 20 Gy X-ray radiation (head only) at a dose rate of 0.7 Gy/minute. Such radiation treatment provides a model of radiotherapy administered to patients undergoing treatment for cancer Experimental groups, each of four mice, were established as set out below: Group 1: Received intra-peritoneal injection, containing 50 mg foscarnet/kilogram bodyweight, in sterile water, one hour prior to radiation. Received one further identical injection on each of the two days following radiation. On the third day after radiation the animals were killed, and oral tissue harvested for analysis. […] Using a Zeiss AxioHOME the number of bromodeoxyuridine labelled and unlabelled cells were assessed in both the basal and suprabasal layers of the ventral surface of the tongue. The area from the basal layer to the stratum corneum stratum granulosum interface was measured along with the length of the basal layer. […] From these measurements the damage that the radiation had caused to the tongue could be assessed as overall cellularity of the tongue or the total number of cells/unit area (mm^2). […]

[2] = 13Gy plus 25 mg foscarnet -1 hr, 1, 2, 3 day, group Average
[3] = 13Gy plus 25 mg foscarnet -1 hr, 1, 2, 3 day, individual mice
[4] = 13Gy plus 50 mg foscarnet -1 hr, 1, 2, 3 day, group Average
[5] = 13Gy plus 50 mg foscarnet -1 hr, 1, 2, 3 day, individual mice

## O=C(O)P(=O)(O)O [foscarnet, phosphonoformic acid trisodium salt hexahydrate]
[1]; [2]
  corrected crypts/circumference: 2.8
  no. crypts/circumference: 5.7
[1]; [3]
  corrected crypts/circumference: 1.4 and 2.0 and 2.7 and 4.4 and 3.0 and 3.3
  no. crypts/circumference: 2.6 and 4.1 and 5.4 and 9.4 and 6.3 and 6.4
[1]; [4]
  corrected crypts/circumference: 4.7
  no. crypts/circumference: 8.8
[1]; [5]
  corrected crypts/circumference: 6.5 and 4.4 and 2.7 and 1.9 and 5.4 and 7.5
  no. crypts/circumference: 11.8 and 8.7 and 5.2 and 4.1 and 9.6 and 13.2
[1]; 25 mg foscarnet -1 hr, 1, 2, 3 day
  Protection Factor: 1.12
[1]; 50 mg foscarnet -1 hr, 1, 2, 3 day
  Protection Factor: 1.88
[1]; 13 Gy, 50 mg/kg foscarnet
  more crypts compared to mice treated with vehicle alone: ~50%
  more small intestinal clonogenic stem cells survived: at least 50%
[1]; Groups 1 and 2 (50 mg foscarnet and 25 mg foscarnet), 13 Gy
  numbers of intestinal crypts after exposure to radiation: increased numbers of intestinal crypts
Digestive epithelia; 50 mg per kilogram bodyweight, 14 Gy partial body
  protection against the deleterious effects of radiation treatment: protects completely
Digestive epithelia; 50 mg/kg intra-peritoneal 1 hr before 14 Gy and daily for 5 days, Day 3
  incidence of diarrhoea (perianal soilage): No
Digestive epithelia; 50 mg/kg intra-peritoneal 1 hr before 14 Gy and daily for 5 days, Day 4
  incidence of diarrhoea (perianal soilage): No diarrhoea
Digestive epithelia; 50 mg/kg intra-peritoneal 1 hr before 14 Gy and daily for 5 days, Day 5
  incidence of diarrhoea (perianal soilage): No diarrhoea
Digestive epithelia; 50 mg/kg intra-peritoneal 1 hr before 14 Gy and daily for 5 days, Day 6
  incidence of diarrhoea (perianal soilage): No diarrhoea
Digestive epithelia; 50 mg/kg intra-peritoneal 1 hr before 14 Gy and daily for 5 days, Day 7
  incidence of diarrhoea (perianal soilage): No diarrhoea
Digestive epithelia; 100 mg per kilogram bodyweight, 14 Gy partial body
  incidence of diarrhoea or associated morbidity compared to vehicle controls: reduced incidence of diarrhoea or associated morbidity
Digestive epithelia; 100 mg/kg intra-peritoneal 1 hr before 14 Gy and daily for 5 days, Day 3
  incidence of diarrhoea (perianal soilage): No
Digestive epithelia; 100 mg/kg intra-peritoneal 1 hr before 14 Gy and daily for 5 days, Day 4
  incidence of diarrhoea (perianal soilage): No diarrhoea
Digestive epithelia; 100 mg/kg intra-peritoneal 1 hr before 14 Gy and daily for 5 days, Day 5
  incidence of diarrhoea (perianal soilage): No diarrhoea
Digestive epithelia; 100 mg/kg intra-peritoneal 1 hr before 14 Gy and daily for 5 days, Day 6
  incidence of diarrhoea (perianal soilage): 2 mice had
Digestive epithelia; 100 mg/kg intra-peritoneal 1 hr before 14 Gy and daily for 5 days, Day 7
  incidence of diarrhoea (perianal soilage): 1 mouse had diarrhoea
Oral mucosa
  average number of cells/unit area, ventral tongue epithelium (FIG. 7): increased
  overall cellularity of the ventral tongue over time (FIG. 6): increased
